PubChem BioAssay AID743030 (The Scripps Research Institute Molecular Screening Center, 2013)

Assays:
Experiment in all cases: plasma and brain homogenate binding extent – biochemical, LC-MS, human, mouse, rat plasma, rat brain, ADME assay for V1a-R antagonist project, late-stage follow-up (AID 743030)
Details in all cases: equilibrium dialysis, 16 h, at 2.5 µM; call rule not given here
Mouse plasma proteins = tested on: Mouse plasma proteins
Human plasma proteins = tested on: Human plasma proteins
Rat brain tissue = tested on: Rat brain tissue
Rat plasma proteins = tested on: Rat plasma proteins

Measured: fraction bound

O=C(C1CCN(c2ccc(Cl)cn2)CC1)N(CC1CC1)c1ccc(Cl)cc1
active: Mouse plasma proteins 97.7% | Human plasma proteins 99.4% | Rat brain tissue > 99.5% | Rat plasma proteins 99.5%
